Data from PubChem BioAssay (NCI).
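A five-concentration, 48-hour dose response in 96-well plates underlies each endpoint, interpolated linearly between surrounding concentrations. TGI: total growth inhibition.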

Key:
Assay in all cases: NCI tumour cell line growth inhibition, 48 h
A498 renal = system: A498 renal
IGROV1 ovarian = system: IGROV1 ovarian
MOLT-4 leukemia = system: MOLT-4 leukemia
CAKI-1 renal = system: CAKI-1 renal
HOP-62 NSCLC = system: HOP-62 NSCLC
786-0 renal = system: 786-0 renal
M14 melanoma = system: M14 melanoma
CCRF-CEM leukemia = system: CCRF-CEM leukemia
HT29 colon = system: HT29 colon
SW-620 colon = system: SW-620 colon
LXFL 529 NSCLC = system: LXFL 529 NSCLC
RXF 393 renal = system: RXF 393 renal
SN12C renal = system: SN12C renal
LOX IMVI melanoma = system: LOX IMVI melanoma
OVCAR-8 ovarian = system: OVCAR-8 ovarian
DMS 273 small cell lung = system: DMS 273 small cell lung
HOP-18 NSCLC = system: HOP-18 NSCLC
NCI-H23 lung = system: NCI-H23 lung
U251 CNS = system: U251 CNS
HL-60(TB) leukemia = system: HL-60(TB) leukemia
UACC-62 melanoma = system: UACC-62 melanoma
A549 NSCLC = system: A549 NSCLC
HCT-15 colon = system: HCT-15 colon
NCI-H522 lung = system: NCI-H522 lung
TK-10 renal = system: TK-10 renal
NCI-H460 lung = system: NCI-H460 lung
UO-31 renal = system: UO-31 renal
DLD-1 colon = system: DLD-1 colon
RPMI-8226 leukemia = system: RPMI-8226 leukemia
COLO 205 colon = system: COLO 205 colon
K-562 leukemia = system: K-562 leukemia
KM20L2 colon = system: KM20L2 colon
SK-MEL-5 melanoma = system: SK-MEL-5 melanoma
HCT-116 colon = system: HCT-116 colon
DMS 114 small cell lung = system: DMS 114 small cell lung
HOP-92 NSCLC = system: HOP-92 NSCLC
RXF-631 renal = system: RXF-631 renal
M19-MEL melanoma = system: M19-MEL melanoma
SK-OV-3 ovarian = system: SK-OV-3 ovarian
SF-268 CNS = system: SF-268 CNS
EKVX NSCLC = system: EKVX NSCLC
SK-MEL-28 melanoma = system: SK-MEL-28 melanoma
ACHN renal = system: ACHN renal
SF-539 CNS = system: SF-539 CNS
XF 498 CNS = system: XF 498 CNS

Measured: TGI

Cc1nc2ccccc2c(=O)n1/N=C(\N=Nc1ccccc1Cl)c1ccccc1Cl
40.5 µM: RXF 393 renal
26.8 µM: XF 498 CNS
> 100 µM: A498 renal | IGROV1 ovarian | MOLT-4 leukemia | HOP-62 NSCLC | 786-0 renal | M14 melanoma | CCRF-CEM leukemia | HT29 colon | SW-620 colon | LXFL 529 NSCLC | SN12C renal | LOX IMVI melanoma | OVCAR-8 ovarian | DMS 273 small cell lung | HOP-18 NSCLC | NCI-H23 lung | U251 CNS | HL-60(TB) leukemia | UACC-62 melanoma | A549 NSCLC | HCT-15 colon | TK-10 renal | NCI-H460 lung | UO-31 renal | DLD-1 colon | RPMI-8226 leukemia | COLO 205 colon | K-562 leukemia | KM20L2 colon | SK-MEL-5 melanoma | HCT-116 colon | DMS 114 small cell lung | RXF-631 renal | M19-MEL melanoma | SF-268 CNS | EKVX NSCLC | SK-MEL-28 melanoma | ACHN renal | SF-539 CNS
98.4 µM: NCI-H522 lung
43.7 µM: HOP-92 NSCLC
64.4 µM: SK-OV-3 ovarian
63.4 µM: CAKI-1 renal
